Reference: article PMC5394417, “Investigating the molecular mechanism of positive and negative allosteric modulators in the calcium-sensing receptor dimer” (Scientific Reports, 2017)

Biological target: T1, HA-F684A CaSR mutant (Rattus norvegicus, UniProt P48442, F684A)
T1 construct: mGluR5 signal peptide (N); expressed in transfected cells; host or cells: HEK293T
T1 sequence (P48442 20-1079 F684A): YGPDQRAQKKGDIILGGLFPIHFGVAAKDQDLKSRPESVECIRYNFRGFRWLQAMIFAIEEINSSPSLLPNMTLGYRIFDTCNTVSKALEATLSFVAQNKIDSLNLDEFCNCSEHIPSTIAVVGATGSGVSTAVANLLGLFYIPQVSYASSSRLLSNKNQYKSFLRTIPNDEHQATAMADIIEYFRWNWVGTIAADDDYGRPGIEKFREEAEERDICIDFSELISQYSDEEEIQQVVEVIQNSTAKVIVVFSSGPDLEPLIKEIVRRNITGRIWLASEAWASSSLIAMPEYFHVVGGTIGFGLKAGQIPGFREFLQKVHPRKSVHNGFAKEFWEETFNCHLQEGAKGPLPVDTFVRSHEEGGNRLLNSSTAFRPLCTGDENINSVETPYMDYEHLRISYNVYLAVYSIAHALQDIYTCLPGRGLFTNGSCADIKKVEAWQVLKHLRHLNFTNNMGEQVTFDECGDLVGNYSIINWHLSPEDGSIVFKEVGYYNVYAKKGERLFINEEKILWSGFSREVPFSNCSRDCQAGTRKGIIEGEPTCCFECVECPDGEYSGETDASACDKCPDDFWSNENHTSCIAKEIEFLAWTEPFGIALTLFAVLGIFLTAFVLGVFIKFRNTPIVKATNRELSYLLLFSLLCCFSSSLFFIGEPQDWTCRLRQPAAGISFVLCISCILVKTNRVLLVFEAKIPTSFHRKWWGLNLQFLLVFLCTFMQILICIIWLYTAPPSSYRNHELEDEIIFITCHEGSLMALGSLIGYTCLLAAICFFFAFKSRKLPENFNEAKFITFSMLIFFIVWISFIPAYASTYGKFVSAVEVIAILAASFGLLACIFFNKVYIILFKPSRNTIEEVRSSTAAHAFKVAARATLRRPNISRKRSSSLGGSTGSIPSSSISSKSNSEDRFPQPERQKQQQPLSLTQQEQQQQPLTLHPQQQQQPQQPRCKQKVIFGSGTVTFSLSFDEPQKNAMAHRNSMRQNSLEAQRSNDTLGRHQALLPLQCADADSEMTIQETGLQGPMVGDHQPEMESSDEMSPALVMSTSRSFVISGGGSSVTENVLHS
Experiment: IP-One assay, HEK293T transiently transfected
Format: cell-based

In the case of `[Ca+2]` [Ca^2+], the EC50 (Ca^2+ alone) is reported as 6.6 mM, the “pEC50 ± S.E.M.” value (Ca^2+ alone) is reported as 2.18 ± 0.01 and the “Max ± S.E.M.” value (Ca^2+ alone, normalized to maximum response of WT CaSR) is reported as 97 ± 3.4%. For the same compound, the EC50 (Ca^2+ with 1 μM NPS R-568) was 2.89 mM, the “pEC50 ± S.E.M.” value (Ca^2+ with 1 μM NPS R-568) was 2.54 ± 0.02 and the “Max ± S.E.M.” value (Ca^2+ with 1 μM NPS R-568, normalized to maximum response with Ca^2+ alone for the construct) was 99 ± 11%. For the same compound, the EC50 (Ca^2+ with 5 μM NPS 2143) was 8.17 mM, the “pEC50 ± S.E.M.” value (Ca^2+ with 5 μM NPS 2143) was 2.09 ± 0.004 and the “Max ± S.E.M.” value (Ca^2+ with 5 μM NPS 2143, normalized to maximum response with Ca^2+ alone for the construct) was 70 ± 8.1%.
